Assays:
Format in all cases: binding
[1] = molecular target: SW480 colon carcinoma cells lysate proteins (Homo sapiens, UniProt Q06210); details: PreyGene GFPT1; SW480 cells
[2] = molecular target: SW480 colon carcinoma cells lysate proteins (Homo sapiens, UniProt Q02878); details: PreyGene RPL6; SW480 cells
[3] = molecular target: T1, SW480 colon carcinoma cells lysate proteins (Homo sapiens, UniProt Q5XKE5); details: PreyGene KRT79; SW480 cells
T1 sequence (Q5XKE5 1-535): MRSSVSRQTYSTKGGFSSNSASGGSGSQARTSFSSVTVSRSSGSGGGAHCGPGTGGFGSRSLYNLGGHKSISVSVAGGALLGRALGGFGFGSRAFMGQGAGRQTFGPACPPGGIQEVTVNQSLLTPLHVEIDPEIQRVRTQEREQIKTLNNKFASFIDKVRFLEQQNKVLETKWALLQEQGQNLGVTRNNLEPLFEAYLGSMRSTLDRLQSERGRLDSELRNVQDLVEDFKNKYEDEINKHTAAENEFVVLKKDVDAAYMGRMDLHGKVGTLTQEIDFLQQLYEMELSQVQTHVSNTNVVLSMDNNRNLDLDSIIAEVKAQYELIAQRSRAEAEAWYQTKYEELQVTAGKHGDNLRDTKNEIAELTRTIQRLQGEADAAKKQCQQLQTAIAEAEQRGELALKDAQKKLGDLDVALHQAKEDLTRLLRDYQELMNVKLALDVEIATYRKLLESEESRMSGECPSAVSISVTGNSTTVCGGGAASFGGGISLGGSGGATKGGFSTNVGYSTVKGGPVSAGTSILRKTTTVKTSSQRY

[4] = molecular target: T2, SW480 colon carcinoma cells lysate proteins (Homo sapiens, UniProt Q13442); details: PreyGene PDAP1; SW480 cells
T2 sequence (Q13442 1-181): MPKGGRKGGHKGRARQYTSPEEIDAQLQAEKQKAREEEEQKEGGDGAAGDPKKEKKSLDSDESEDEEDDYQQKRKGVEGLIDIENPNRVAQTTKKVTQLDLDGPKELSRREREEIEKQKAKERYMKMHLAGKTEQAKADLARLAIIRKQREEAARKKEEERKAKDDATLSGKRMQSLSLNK

[5] = molecular target: T3, SW480 colon carcinoma cells lysate proteins (Homo sapiens, UniProt P50395); details: PreyGene GDI2
T3 sequence (P50395 1-445): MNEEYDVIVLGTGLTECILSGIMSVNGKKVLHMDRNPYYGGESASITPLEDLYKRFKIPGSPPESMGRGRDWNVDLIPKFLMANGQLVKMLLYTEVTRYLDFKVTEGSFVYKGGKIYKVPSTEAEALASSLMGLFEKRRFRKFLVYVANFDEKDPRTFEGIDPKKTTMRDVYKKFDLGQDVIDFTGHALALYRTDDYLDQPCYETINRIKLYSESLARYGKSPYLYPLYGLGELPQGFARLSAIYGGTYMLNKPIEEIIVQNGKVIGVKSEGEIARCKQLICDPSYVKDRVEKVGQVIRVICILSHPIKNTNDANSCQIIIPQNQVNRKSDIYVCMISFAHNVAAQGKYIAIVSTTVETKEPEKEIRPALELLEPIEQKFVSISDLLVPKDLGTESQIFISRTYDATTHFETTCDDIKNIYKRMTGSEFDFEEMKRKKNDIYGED

[6] = molecular target: T4, SW480 colon carcinoma cells lysate proteins (Homo sapiens, UniProt P12429); details: PreyGene ANXA3
T4 sequence (P12429 1-323): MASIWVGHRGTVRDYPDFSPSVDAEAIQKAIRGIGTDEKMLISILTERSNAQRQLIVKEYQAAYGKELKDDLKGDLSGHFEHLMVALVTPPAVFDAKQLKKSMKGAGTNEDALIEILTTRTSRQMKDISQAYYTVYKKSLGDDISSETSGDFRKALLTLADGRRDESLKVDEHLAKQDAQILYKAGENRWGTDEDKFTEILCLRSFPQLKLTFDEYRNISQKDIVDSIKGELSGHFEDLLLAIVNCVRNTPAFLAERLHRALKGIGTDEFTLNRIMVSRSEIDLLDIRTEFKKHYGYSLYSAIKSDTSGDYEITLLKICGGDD

[7] = molecular target: T5, SW480 colon carcinoma cells lysate proteins (Homo sapiens, UniProt Q15758); details: PreyGene SLC1A5
T5 sequence (Q15758 1-541): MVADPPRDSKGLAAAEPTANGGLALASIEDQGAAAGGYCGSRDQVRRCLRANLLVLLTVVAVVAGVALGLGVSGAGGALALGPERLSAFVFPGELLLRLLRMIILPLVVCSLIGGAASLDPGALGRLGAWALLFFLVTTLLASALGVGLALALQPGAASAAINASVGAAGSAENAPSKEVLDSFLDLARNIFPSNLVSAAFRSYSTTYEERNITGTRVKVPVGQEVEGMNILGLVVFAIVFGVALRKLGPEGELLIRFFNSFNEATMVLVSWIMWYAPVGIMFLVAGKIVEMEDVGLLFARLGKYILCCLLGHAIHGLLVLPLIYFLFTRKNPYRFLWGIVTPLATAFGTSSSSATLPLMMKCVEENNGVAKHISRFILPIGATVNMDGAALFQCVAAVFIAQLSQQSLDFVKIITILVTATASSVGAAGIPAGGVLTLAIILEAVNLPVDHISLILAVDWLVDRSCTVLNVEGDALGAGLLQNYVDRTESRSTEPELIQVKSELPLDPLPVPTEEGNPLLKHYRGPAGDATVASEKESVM

Chain of SW480 colon carcinoma cells lysate proteins (Homo sapiens, UniProt Q06210) (Q06210 whole entry): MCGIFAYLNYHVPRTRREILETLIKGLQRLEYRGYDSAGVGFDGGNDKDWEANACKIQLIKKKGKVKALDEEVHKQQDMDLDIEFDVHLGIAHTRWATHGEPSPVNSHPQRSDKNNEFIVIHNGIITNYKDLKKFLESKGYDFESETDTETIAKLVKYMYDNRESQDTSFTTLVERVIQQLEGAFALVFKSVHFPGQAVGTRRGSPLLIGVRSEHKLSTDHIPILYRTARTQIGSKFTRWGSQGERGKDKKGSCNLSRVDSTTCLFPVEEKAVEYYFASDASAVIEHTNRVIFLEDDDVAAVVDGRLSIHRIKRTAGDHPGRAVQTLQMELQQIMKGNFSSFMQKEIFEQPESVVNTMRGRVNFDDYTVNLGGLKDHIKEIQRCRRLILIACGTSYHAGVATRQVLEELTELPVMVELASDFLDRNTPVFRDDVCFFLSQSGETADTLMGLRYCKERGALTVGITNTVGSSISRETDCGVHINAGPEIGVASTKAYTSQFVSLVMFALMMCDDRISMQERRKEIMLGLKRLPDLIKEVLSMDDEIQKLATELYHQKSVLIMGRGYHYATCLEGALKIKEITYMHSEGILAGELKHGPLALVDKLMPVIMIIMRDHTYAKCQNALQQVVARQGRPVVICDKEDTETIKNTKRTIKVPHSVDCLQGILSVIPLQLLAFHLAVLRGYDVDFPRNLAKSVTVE

## C[C@H](Oc1cc(-c2cnn(C3CCNCC3)c2)cnc1N)c1c(Cl)ccc(F)c1Cl [(5)-crizotinib]
[1]
  AvgP: 0
  SC.Exp. 1-1: 1
  SC.Exp. 1-2: 1
  SC.Exp. 2-1: 0
  SC.Exp. 2-2: 0
  SC.Exp. Sum: 2
[2]
  AvgP: 0
  SC.Exp. 1-1: 7
  SC.Exp. 1-2: 11
  SC.Exp. 2-1: 4
  SC.Exp. 2-2: 6
  SC.Exp. Sum: 28
[3]
  AvgP: 0
  SC.Exp. 1-1: 0
  SC.Exp. 1-2: 1
  SC.Exp. 2-1: 0
  SC.Exp. 2-2: 0
  SC.Exp. Sum: 1
[4]
  AvgP: 0
  SC.Exp. 1-1: 1
  SC.Exp. 1-2: 1
  SC.Exp. 2-1: 0
  SC.Exp. 2-2: 0
  SC.Exp. Sum: 2
[5]
  AvgP: 0.1854
  SC.Exp. 1-1: 4
  SC.Exp. 1-2: 0
  SC.Exp. 2-1: 0
  SC.Exp. 2-2: 0
  Sum (SC.Exp.): 4
[6]
  AvgP: 0.461
  SC.Exp. 1-1: 4
  SC.Exp. 1-2: 4
  SC.Exp. 2-1: 0
  SC.Exp. 2-2: 0
  Sum (SC.Exp.): 8
[7]
  AvgP: 0.227
  SC.Exp. 1-1: 1
  SC.Exp. 1-2: 0
  SC.Exp. 2-1: 3
  SC.Exp. 2-2: 2
  Sum (SC.Exp.): 6
